Marks after values point to notes of the source that are not given here.

Experiment [1] deals with dermatitis induced by repeated application of oxazolone. The experiment can be described thus: Inhibitory effects on the increase of ear thickness in a mouse model of dermatitis induced by repeated application of oxazolone. Format: in vivo, BALB/c mice. The following applies: 28th day, dose 50 μg/site/time. As for the experimental part: Six-week-old BALB/c mice (male, Charles River Japan, Inc.) were used for the experiment. […] The mice were placed in plastic cages (6 mice per cage) in a breeding room which was kept at a room temperature (19 to 25° C.) and a humidity of 30 to 70% and was illuminated for 12 hours a day (from 7:00 a.m. to 7:00 p.m.). The mice were allowed to freely access commercially available pellets and water.
The experiment was performed according to a method by Kitagaki et al. (J. Invest. Dermatol., […], 105: 749) with small modification.
As an antigen solution, Oxazolone (Sigma-Aldrich) was dissolved in acetone (Kanto Kagaku) to prepare 0.5 weight/volume % of oxazolone-acetone solution. Compound (I) was dissolved in the antigen solution at 5 weight/volume % to prepare a Compound (I)-dissolving antigen solution. BALB/c mice were each applied with 10 μL of the antigen solution to the ear for sensitization. […] On the 28th day when chronic dermatitis symptoms were observed, ear thickness was measured with a dial thickness gauge (Ozaki Seisakusho). The inhibition ratio (%) against the increase of ear thickness was calculated using the following: Inhibition ratio (%)=[{(value in solvent administration group)−(value in Compound (I) administration group)}/{(value in solvent administration group)−(value in non-administration group)}]×100

Experiment [2] has as its system oxazolone-induced ear swelling. Briefly: Inhibitory effects on oxazolone-induced ear swelling in mice. Format: in vivo, BALB/c mice. The note with it: dose 100 μg/site, epicutaneous. Here is the method:
Six-week-old BALB/c mice (male, Charles River Japan, Inc.) were used for the experiment. […] The mice were placed in plastic cages (6 mice per cage) in a breeding room which was kept at a room temperature (19 to 25° C.) and a humidity of 30 to 70% and was illuminated for 12 hours a day (from 7:00 a.m. to 7:00 p.m.). The mice were allowed to freely access commercially available pellets and water. As an antigen solution, Oxazolone (Sigma-Aldrich) was dissolved in acetone (Kanto Kagaku) to prepare 0.5 weight/volume % of oxazolone-acetone solution. Compound (I) was dissolved in the antigen solution at 5 weight/volume % to prepare a Compound (I)-dissolving antigen solution. BALB/c mice were each applied with 100 μL of the antigen solution to the shaved abdomen for sensitization. Mice were shaved on abdomen on the previous day of the sensitization. […] Ear thickness was measured with a dial thickness gauge (Ozaki Seisakusho) just before and 24 hours after the application for inducing .the reaction, and the difference in the thickness was used as an indication of ear swelling. The inhibition ratio (%) against ear swelling was calculated using the following: Inhibition ratio (%)=[{(value in solvent administration group)−(value in Compound (I) administration group)}/{(value in solvent administration group)−(value in non-administration group)}]×100

For experiment [3], the system named is chronic dermatitis models. The note with it: J. Pharmacol. Exp. Ther., 1998, 287, p. 705; cited from earlier work.
Experiment [4] deals with delayed-type allergic reaction in the skin. The following applies: animal model; Eur. J. Pharmacol., 2002, 446: 195; cited from earlier work.

For `COc1ccc(C(=O)Cc2c(Cl)cncc2Cl)c2c1OC1(CCCC1)O2` [Compound (I), 7-[2-(3,5-dichloro-4-pyridyl)-1-oxoethyl]-4-methoxy-spiro[1,3-benzodioxol-2,1′-cyclopentane]], the Auricle thickness in experiment [1] (repeated application to the ear day 7 to 28, male BALB/c mice) is 67** ×0.01 mm. Further, the “Inhibition Ratio against the increase of ear thickness” value in experiment [1] (repeated application, relative to solvent and non-administration groups) came out at 41%. The “Auricular Edema” value in experiment [2] (difference in ear thickness just before and 24 hours after induction, male BALB/c mice) is reported as 16** ×0.01 mm. The “Inhibition Ratio against ear swelling” value in experiment [2] (24 hours after induction, relative to solvent and non-administration groups) is on record as 64%.

For `COc1ccc([C@]2(C#N)CC[C@@H](C(=O)O)CC2)cc1OC1CCCC1` [SB207499], the “Therapeutic effects on chronic dermatitis models” value in experiment [3] is on record as “exhibit therapeutic effects on chronic dermatitis models”. Further, in experiment [4], the “Effect on delayed-type allergic reaction in the skin” value is “inhibit a delayed-type allergic reaction in the skin”.
